Assay results from US20140004243A1, “SALTY TASTE ENHANCER” (AJINOMOTO CO., INC., priority 2011, published 2014).

target: T1, Human ENaC δ, β and γ subunit (Homo sapiens, UniProt P51168+P51170+P51172); assay: Measurement of ENaC activation potency (MED) in ENaC-expressing oocyte, Two Electrode Voltage Clamp; type: cell-based; settings: minimum effective dose at which current started to increase; ENaC-expressing African clawed frog oocyte; smaller MED = higher ENaC activation potency
T1 construct: expressed in transfected cells; host or cells: Xenopus laevis (African clawed frog) oocytes injected with cRNA
T1 sequence (P51172 1-802): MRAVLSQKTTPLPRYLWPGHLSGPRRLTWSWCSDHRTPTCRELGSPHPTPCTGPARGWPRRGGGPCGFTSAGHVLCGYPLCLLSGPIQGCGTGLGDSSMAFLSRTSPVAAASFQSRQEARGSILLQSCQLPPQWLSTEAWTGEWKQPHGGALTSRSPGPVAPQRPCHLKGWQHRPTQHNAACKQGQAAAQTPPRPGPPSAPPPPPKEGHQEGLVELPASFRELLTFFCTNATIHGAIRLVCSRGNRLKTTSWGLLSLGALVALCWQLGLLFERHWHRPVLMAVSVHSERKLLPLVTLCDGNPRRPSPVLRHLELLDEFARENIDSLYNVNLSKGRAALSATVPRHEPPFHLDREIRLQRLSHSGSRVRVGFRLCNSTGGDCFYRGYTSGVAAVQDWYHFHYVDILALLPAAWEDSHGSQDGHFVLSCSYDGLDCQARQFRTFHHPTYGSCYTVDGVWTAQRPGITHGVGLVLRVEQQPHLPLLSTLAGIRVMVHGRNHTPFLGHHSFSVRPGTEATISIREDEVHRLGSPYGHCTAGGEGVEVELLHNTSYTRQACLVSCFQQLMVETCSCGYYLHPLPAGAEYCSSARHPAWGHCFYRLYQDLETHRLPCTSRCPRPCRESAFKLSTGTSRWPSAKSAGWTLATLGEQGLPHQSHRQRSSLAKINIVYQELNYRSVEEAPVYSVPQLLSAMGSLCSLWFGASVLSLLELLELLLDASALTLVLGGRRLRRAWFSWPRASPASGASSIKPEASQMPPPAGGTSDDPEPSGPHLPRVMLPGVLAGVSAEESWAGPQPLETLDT
T1 sequence (P51168 1-640): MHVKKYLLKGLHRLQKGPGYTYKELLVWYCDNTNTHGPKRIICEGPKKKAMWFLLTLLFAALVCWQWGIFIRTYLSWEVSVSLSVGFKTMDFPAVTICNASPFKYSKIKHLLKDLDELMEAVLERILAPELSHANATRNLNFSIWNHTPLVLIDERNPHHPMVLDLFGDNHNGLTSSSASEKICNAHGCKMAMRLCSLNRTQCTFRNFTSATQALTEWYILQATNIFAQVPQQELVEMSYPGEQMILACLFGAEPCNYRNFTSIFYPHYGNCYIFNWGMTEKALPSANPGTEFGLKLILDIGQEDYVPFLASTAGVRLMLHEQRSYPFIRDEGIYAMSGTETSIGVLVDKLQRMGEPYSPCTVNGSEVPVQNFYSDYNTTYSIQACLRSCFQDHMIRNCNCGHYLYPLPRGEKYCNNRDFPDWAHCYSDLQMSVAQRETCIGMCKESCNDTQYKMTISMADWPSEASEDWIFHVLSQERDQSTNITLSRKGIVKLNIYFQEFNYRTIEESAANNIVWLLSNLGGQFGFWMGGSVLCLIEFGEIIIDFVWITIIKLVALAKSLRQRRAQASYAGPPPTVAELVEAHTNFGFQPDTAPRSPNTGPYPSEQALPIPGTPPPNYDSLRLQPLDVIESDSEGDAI
T1 sequence (P51170 1-649): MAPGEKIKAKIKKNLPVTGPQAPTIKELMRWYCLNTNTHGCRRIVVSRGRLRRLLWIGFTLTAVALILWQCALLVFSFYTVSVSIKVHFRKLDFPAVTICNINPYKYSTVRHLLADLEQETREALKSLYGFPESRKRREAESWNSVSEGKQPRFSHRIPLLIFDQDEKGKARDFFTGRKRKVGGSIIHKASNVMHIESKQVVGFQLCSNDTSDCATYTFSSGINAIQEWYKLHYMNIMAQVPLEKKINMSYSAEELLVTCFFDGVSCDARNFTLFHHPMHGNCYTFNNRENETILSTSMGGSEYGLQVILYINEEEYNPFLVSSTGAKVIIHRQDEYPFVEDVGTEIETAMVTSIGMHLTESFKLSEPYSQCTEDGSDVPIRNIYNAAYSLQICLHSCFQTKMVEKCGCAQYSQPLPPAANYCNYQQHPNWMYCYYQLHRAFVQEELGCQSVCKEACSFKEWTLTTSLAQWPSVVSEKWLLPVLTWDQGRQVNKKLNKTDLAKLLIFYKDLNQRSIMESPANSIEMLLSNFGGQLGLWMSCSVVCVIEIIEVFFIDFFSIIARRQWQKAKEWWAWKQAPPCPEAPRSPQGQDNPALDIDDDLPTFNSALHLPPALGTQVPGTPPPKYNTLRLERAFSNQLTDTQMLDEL
Procedure: ENaC activation current value, namely, the inward current in ENaC-expressing oocyte was measured as follows.
According to the method described in Motonao Nakamura, Takao Shimizu: Experiment of African clawed frog oocyte, Experimental Medicine Vol. 11, No. 3, 224-232 (1993), oocyte was collected from African clawed frog, […], and the current value was measured by a Two Electrode Voltage Clamp technique. In the present invention, ND96 (96 mM NaCl, 2 mM KCl, 1 mM MgCl2, 5 mM Hepes, 1.8 mM CaCl2, pH 7.6) was used instead of MBS buffer in the above-mentioned document. Injector NANOLITER 2000 manufactured by World Precision Instruments was used for microinjection, OpusXpress 6000A manufactured by Molecular Devices was used for current value measurement by a Two Electrode Voltage Clamp technique, and Clampfit 10.2 software manufactured by Molecular Devices was used for data analysis.
Human ENaC δ, β and γ subunit genes shown by SEQ ID NOs: 1, 2 and 3, respectively, in the Sequence Listing were each cloned into a plasmid vector, and used as a template DNA for cRNA synthesis. cRNA was synthesized using MEGAscript kit manufactured by Ambion and according to the method of the manual of the manufacturer.
A mixture of the same amount of ENaC […] cRNA (0.4 to 0.8 μg/μL), and β and γ subunits cRNA (0.4 μg/μL) was injected into the oocyte of African clawed frog at […] per oocyte, and the oocyte was cultured for 16 hr-72 hr. Thereafter, the oocyte was set on a measuring apparatus OpusXpress 6000A, the electrodes were inserted into the oocyte, the voltage was clamped at a level lower by −30 mV than the resting membrane potential by a Two Electrode Voltage Clamp technique, and the current value was measured.
To measure the ENaC activation potency, oocyte was stimulated with each test compound, and the minimum effective dose (hereinafter to be abbreviated as MED) of the compound at the time point when the electric current started to increase was measured. In this case, whichever smaller value of the minimum effective dose of the stimulation compound that increased the current value by not less than 10%, and the minimum effective concentration of the compound that increased, by not less than 25%, the electric current increase value due to the stimulation by 5 μM capsazepine (CAS NO.: 138977-28-3), as compared to the current value before addition of the compound and without stimulation, was taken as MED. A smaller MED means higher ENaC activation potency.
Each test compound was directly dissolved in ND96, or first dissolved in dimethyl sulfoxide (DMSO) to 100 mM, and then prepared by diluting the solution with ND96 to a concentration used for the evaluation. The concentration of the test compound in ND96 was prepared to various concentrations within the range of 0.1 nM to 300 μm.
ND96 as a perfusion fluid was flown at a rate of 0.5 mL/min through the measuring apparatus OpusXpress 6000A on which ENaC-expressing oocyte was set, the perfusion fluid was temporarily stopped every 3 minutes to add a test compound solution (0.25 mL) dissolved in ND96 at a rate of 0.5 mL/min. In this way, the test compound was contacted with ENaC-expressing oocyte, and whether ENaC is activated by the compound was examined by measuring the current value. After addition of the test compound, feeding of the perfusion fluid was resumed to wash away the compound to be ready for the next addition of the compound.
The compound was added successively from a low concentration to a high concentration to stimulate ENaC-expressing oocyte. The concentrations actually added was, for example, 1 nM, 3 nM, 10 nM, 30 nM, 100 nM, 300 nM; 1 μM, 3 μM, 10 μm, 30 μm, 100 μm, 300 μm; 1.2 μM, 6 μM, 30 μm, 150 μm of one test compound. The compound was added from low concentrations to high concentrations at 3 min intervals. […]

Row | Compound | MED [µM]
1 | COC(=O)c1ccccc1NC(=S)N(C)CCc1ccccc1 [Example 37] | 3
2 | S=C(NCCc1c[nH]c2ccccc12)Nc1ccccc1 [Example 34] | 10
3 | Oc1ccc(CCNC(=S)NCc2ccccc2)cc1 [Example 17] | 3
4 | C[C@@H](NC(=S)NN)c1ccccc1 [Example 36] | 30
5 | S=C(NCCc1ccc(Cl)cc1)NCCc1c[nH]c2ccccc12 [Example 6] | 30
6 | COC(=O)c1ccc(CNC(=S)NCCc2ccccc2)cc1 [Example 56] | 10
7 | S=C(NCCCc1ccccc1)NCc1ccccc1 [Example 18] | 10
8 | COc1ccccc1CNC(=S)NCCc1ccccc1 [Example 28] | 1 to 3
9 | COc1ccc(CCNC(=S)NCc2ccccc2)cc1 [Example 16] | 3
10 | CN(CCc1ccccc1)C(=S)Nc1ccccc1C(=O)O [Example 38] | 0.1
11 | CN(Cc1ccc(O)c(O)c1)C(=S)NCCc1ccc(Cl)cc1 [Example 5] | 1
12 | Oc1cccc(CNC(=S)NCCc2ccccc2)c1 [Example 44] | 1
13 | OC(CNC(=S)NCc1ccccc1)c1ccccc1 (stereo not drawn) [Example 54] | 1
14 | S=C(NCCc1ccccc1)NCCc1c[nH]c2ccccc12 [Example 7] | 5
15 | S=C(NCCc1ccccc1)NCc1nc2ccccc2[nH]1 [Example 33] | 3
16 | S=C(NCCc1ccccc1)NCc1ccc2c(c1)OCO2 [Example 26] | 3.3
17 | Oc1ccc(CNC(=S)NCCc2ccc(Cl)cc2)cc1O [Example 1] | 1

Other lines, results leading:

Row | MED [µM] | Compound
18 | 30 | COc1cccc(OC)c1CNNC(=S)N[C@H](C)c1ccccc1 [Example 93, 1-(2,6-dimethoxybenzyl)-4-((R)-1-phenylethyl)thiosemicarbazide]
19 | 1 | O[C@H](CNC(=S)NCc1ccccc1)c1ccccc1 [Example 72]
20 | 1 | O[C@@H](CNC(=S)NCc1ccccc1)c1ccccc1 [Example 71]
21 | 3 | COC(=O)c1cc(O)ccc1NC(=S)N(C)CCc1ccccc1 [Example 119]
22 | 3 to 10 | C[C@@H](NC(=S)N/N=C/c1c(O)cccc1O)c1ccccc1 [Example 94]
23 | 1 | C[C@@H](NC(=S)Nc1c(O)cccc1O)c1ccccc1 [Example 91]
24 | 10 | S=C(CCc1ccccc1)NCCc1ccccc1 [Example 81]
25 | 1 | O=C(O)[C@@H](NC(=S)NCCc1ccccc1)c1ccccc1 [Example 101]
26 | 0.3 | C[C@@H](NC(=S)N[C@H](Cc1ccc(O)cc1)C(=O)O)c1cccc(O)c1 [Example 109]
27 | 3.3 | Oc1cccc(CCNC(=S)NCc2ccccc2)c1 [Example 63]
28 | 1 | C[C@@H](NC(=S)NNCc1ccccc1O)c1ccccc1 [Example 90]
29 | 1 | CC[C@@H](NC(=S)NCCc1ccccc1O)c1ccccc1 [Example 98]
30 | 10 | S=C(NCCc1ccccc1)N[C@H](COCc1ccccc1)c1ccccc1 [Example 76]
31 | 30 | COc1cccc(OC)c1/C=N/NC(=S)N[C@H](C)c1ccccc1 [Example 92, (E)-1-(2,6-dimethoxybenzylidene)-4-((R)-1-phenylethyl)thiosemicarbazide]
32 | 0.6 | C[C@@H](NC(=S)NCCc1ccccc1O)c1ccccc1 [Example 85]
33 | 10 | COc1cccc(CCNC(=S)NCc2ccccc2)c1 [Example 60]
34 | 30 | O=[N+]([O-])c1ccc(CNC(=S)NCCc2ccccc2)cc1 [Example 64]
35 | 0.06 to 0.1 | C[C@@H](NC(=S)NCCc1ccccc1C(=O)O)c1cccc(O)c1 [Example 125, 2-(2-{3-[(R)-1-(3-hydroxyphenyl)ethyl]thioureido}ethyl)benzoic acid]
36 | 1 | Nc1cccc(CNC(=S)NCCc2ccccc2)c1 [Example 79, 1-(3-aminobenzyl)-3-(2-phenylethyl)thiourea]
37 | 0.3 | Cc1ccc(O)c(C(O)CNC(=S)N[C@H](C)c2cccc(O)c2)c1 (stereo partly drawn) [Example 113]
38 | 10 | COc1cc(CNC(=S)NCCc2ccccc2)cc(OC)c1 [Example 67]
39 | 0.06 to 0.1 | C[C@@H](NC(=S)NCC(O)c1ccccc1O)c1cccc(O)c1 (stereo partly drawn) [Example 105, 1-[2-(2-hydroxyphenyl)-2-hydroxyethyl]-3-[(R)-1-(3-hydroxyphenyl)ethyl]thiourea]
